Eight compounds from patent publication US20240190875A1, “SPIROINDOLINE DERIVATIVE, AND PREPARATION METHOD AND MEDICAL USE THEREOF” (CHANGCHUN GENESCIENCE PHARMACEUTICAL CO., LTD., priority 2021, published 2024) can be followed below.

The target of data set [1] is human GHSR (Homo sapiens (Human), UniProt Q92847). Briefly: Human GHSR agonist activity, FLIPR calcium fluorescence in human GHSR/CHO stable cell line. The class given is cell-based. As for the experimental part:
This method was used to determine the agonism effect of the compound of the invention on the activity of human GHSR protein expressed in human GHSR/CHO stable cell line.
Preparation of buffer: HBSS (1X):HEPES (1M)=49:1, containing 0.5% BSA.
Cells of human GHSR/CHO stable cell line were inoculated into a 384-well plate, and incubated overnight. Then, the cell plate was removed, and the medium was discarded. 20 uL buffer as slowly added to each well, and then 20 uL 2X Fluo-4 Direct™ No-wash Loading Buffer was added to each well. The cell plate was incubated in an incubator at 37° C. and 5% CO2 for 50 min, and then removed and allowed to stand at room temperature for 10 min. 30 uL buffer was added to each well in the compound plate; and a buffer plate was additionally prepared and 30 uL buffer was added to each well. Test for agonism of compound: An FLIPR instrument and running software were used. 10 uL buffer was transferred to the cell plate and the value of fluorescence signal was read. 10 uL compound was transferred to the cell plate and the value of fluorescence signal was read. An FLIPR program was used to calculate the difference between the maximum value and the minimum value from the 91st signal point to the 230th signal point. The EC50 value of the compound can be calculated by software from fluorescence values corresponding to various concentrations.

For data set [2], the system named is growth hormone (GH). Briefly: In-vivo pharmacodynamic test in rats: plasma GH level by ELISA after oral administration. On the set-up: species or system Sprague-Dawley (SD) rats. As to conditions: for GH concentration in rats: male SD rats, oral, 4 mpk in 10% HS15. In general terms: An ELISA detects its analyte on a solid surface through an enzyme-linked reagent.

Data set [3] is described as follows: in vitro. As to conditions: human; for Papp B→A at 2 h, 2 μM: Caco-2, pH 7.4, Mean Papp B to A.
Data set [4] can be described thus: Metabolism (pharmacokinetic) test in rats, oral gavage.
Data set [5] has as its system Caco-2 cells. The note with it: human, Caco-2, 2 h, 2 μM, pH 7.4.
Data set [6] in a line: Caco-2 cell transport assay (bidirectional). The note with it: human, Caco-2, 2.00 μM; for efflux ratio at 2 h, 2 μM: Caco-2, pH 7.4, Efflux Ratio; for Papp A→B at 2 h, 2 μM: Caco-2, pH 7.4, Mean Papp A to B; for Papp A→B at 2 h, 2 μM / Papp B→A at 2 h, 2 μM: pH 7.40; for Papp B→A at 2 h, 2 μM: Caco-2, pH 7.4, Mean Papp B to A. A general note: Passage across Caco-2 layers is used to estimate intestinal permeability.

Data set [7] is described as follows: Subacute toxicity test in rats (14 days oral, 14 days recovery). The class given is in vivo, Sprague-Dawley (SD) rats. As for the experimental part:
Male Sprague-Dawley (SD) rats (180-220 g) were purchased from Liaoning Changsheng Biotechnology Co., Ltd. (Liaoning, China). All animals were kept in a temperature-controlled room (22±2° C.) with a relative humidity of 55±15% and a 12/12-h light/dark period (the light was turned off at 8:00 pm), with 3 animals in each cage. Animals were adapted to the environment for 1 week after arrival, and allowed to free access to indicated feed and sterilized water, and the padding in the animal cage was changed twice a week.
The compound of the present invention was prepared in 10% HS15.
Multiple doses (30 mpk, 100 mpk and 300 mpk) of the compound of the present invention were orally administered to rats. The compound was administered once a day for consecutive 14 days. The rats were weighed twice a week. […] Compound 5 was given by oral gavage for consecutive 14 days and then recovered for 2 weeks.

For data set [8], the system named is Caco-2 cells. The data set is described as follows: Caco-2 cell transport assay (bidirectional). The note with it: Table 3-1, Caco-2, 2.00 μM.
[9] abbreviates: time point 0 min (basic sampling before dosing).
[10] abbreviates: rats, single oral gavage, 1 mg/mL, 3 mL/kg, active ingredient ibutamoren measured in whole blood.
Where [11] appears, read: oral gavage 30, 100, 300 mpk once a day for 14 days, 2 weeks recovery.

Each structure is given as a SMILES string. Like-named read-outs stand apart in the source and are kept apart here.

human GHSR, sequence (Q92847 whole entry): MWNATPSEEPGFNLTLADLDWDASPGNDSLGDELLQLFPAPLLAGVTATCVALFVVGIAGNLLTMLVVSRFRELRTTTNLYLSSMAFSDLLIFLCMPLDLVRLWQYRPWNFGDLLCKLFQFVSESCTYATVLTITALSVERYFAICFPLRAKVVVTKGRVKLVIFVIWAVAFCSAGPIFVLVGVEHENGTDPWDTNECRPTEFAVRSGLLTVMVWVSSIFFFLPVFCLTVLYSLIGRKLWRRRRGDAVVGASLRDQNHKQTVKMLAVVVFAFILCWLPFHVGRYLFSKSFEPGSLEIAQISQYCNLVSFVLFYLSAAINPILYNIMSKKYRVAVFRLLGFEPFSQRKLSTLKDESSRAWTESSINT

`CC(OC(=O)NC(C)(C)C(=O)N[C@H](COCc1ccccc1)C(=O)N1CCC2(CC1)CN(S(C)(=O)=O)c1ccccc12)OC(=O)C(C)(C)C` (stereo partly drawn) [Compound 20, (4R)-7,7-dimethyl-4-(1-(methylsulfonyl)spiro[indolin-3,4′-piperidin]-1′-carbonyl)-6,9-dioxo-1-phenyl-2,10-dioxa-5,8-diazadodecan-11-yl Pivalate]: in data set [1], the EC50 amounted to 37.7 nM.
Still for that read-out and setting: the value for `CCC(C)C(=O)OC(C)OC(=O)NC(C)(C)C(=O)N[C@H](COCc1ccccc1)C(=O)N1CCC2(CC1)CN(S(C)(=O)=O)c1ccccc12` (stereo partly drawn) [Compound 12, (4R)-7,7-dimethyl-4-(1-(methylsulfonyl)spiro[indol-3,4′-piperidin]-1′-carbonyl)-6,9-dioxo-1-phenyl-2,10-dioxa-5,8-diazadodecan-11-yl 2-methylbutyrate] was 35.9 nM.
With `CC(=O)OC(C)OC(=O)NC(C)(C)C(=O)N[C@H](COCc1ccccc1)C(=O)N1CCC2(CC1)CN(S(C)(=O)=O)c1ccccc12` (stereo partly drawn) [Compound 14, (4R)-7,7-dimethyl-4-(1-(methylsulfonyl)spiro[indol-3,4′-piperidin]-1′-carbonyl)-6,9-dioxo-1-phenyl-2,10-dioxa-5,8-diazadodecan-11-yl Acetate], the EC50 in data set [1] turned out to be 47.2 nM. Further, in data set [2] (rat, in vivo), the “Effect on GH level compared with ibutamoren (in words)” value is “significantly better than that of ibutamoren” and the “GH level in the circulation of rats (in words)” value is on record as “significantly increased”.
On to `CC(C)(N)C(=O)N[C@H](COCc1ccccc1)C(=O)N1CCC2(CC1)CN(S(C)(=O)=O)c1ccccc12` [Ibutamoren, reference compound], for which the Papp B→A at 2 h, 2 μM in data set [3] came out at 19.5 ×10⁻⁶ cm/s. In addition, in data set [4] (rat, whole blood, po, 3 mg/kg), the total exposure AUC(0-inf) was 14.3 ± 11 ng·h/mL, the AUC(0-t) was 6.97 ± 3.27 ng·h/mL, the maximum concentration (Cmax) is 3.49 ± 2.81 ng/mL and the Tmax is 1.06 ± 1.68 h. The compound further showed a half-life in data set [4] (rat, whole blood, po, 3 mg/kg) of 9.61 ± 12.1 h. Besides, the “GH concentration in rats” value in data set [2] (setting [9]) stood at 12.22 ± 9.90 ng/mL. Moreover, the “Mean Papp B to A” value in data set [5] is 24.1 10^−6 cm/s.
Consider `C[C@H]1O[C@@H](O[C@H]2[C@@H](O)C[C@H](O[C@H]3[C@@H](O)C[C@H](O[C@H]4CC[C@@]5(C)[C@H](CC[C@@H]6[C@@H]5C[C@@H](O)[C@]5(C)[C@@H](C7=CC(=O)OC7)CC[C@]65O)C4)O[C@@H]3C)O[C@@H]2C)C[C@H](O)[C@@H]1O` [Digoxin], for which, in data set [6] (Table 3-1), the efflux ratio at 2 h, 2 μM is 523; the Papp A→B at 2 h, 2 μM is 0.0229 ×10⁻⁶ cm/s; the Papp B→A at 2 h, 2 μM was determined as 12 ×10⁻⁶ cm/s. For the same compound, in data set [6] (Table 3-2), the efflux ratio at 2 h, 2 μM stood at 300; the apical-to-basolateral permeability (Papp A→B) at 2 h, 2 μM was 0.0476 ×10⁻⁶ cm/s; the Papp B→A at 2 h, 2 μM is 14.3 ×10⁻⁶ cm/s.
Turning to `CC(OC(=O)NC(C)(C)C(=O)N[C@H](COCc1ccccc1)C(=O)N1CCC2(CC1)CN(S(C)(=O)=O)c1ccccc12)OC(=O)C(C)C` (stereo partly drawn) [Compound 5, (4R)-7,7-dimethyl-4-(1-(methylsulfonyl)spiro[indol-3,4′-piperidin]-1′-carbonyl)-6,9-dioxo-1-phenyl-2,10-dioxa-5,8-diazadodecan-11-yl Isobutyrate], in data set [4] (rats, oral gavage), the “Cmax and AUC compared with positive control ibutamoren (in words)” value is given as “obviously superior”. In data set [4] (setting [10]), this compound had an AUCINF-obs of 23.31 ± 10.81 ng·h/mL, an AUClast of 21.61 ± 9.52 ng·h/mL, a Cmax of 18.50 ± 13.60 ng/mL and a T1/2 of 2.43 ± 0.13 h. Also, in data set [4] (setting [10]), the Tmax amounted to 0.44 ± 0.49 h. The EC50 in data set [1] (human GHSR/CHO stable cell line, Fluo-4 FLIPR) worked out at 14.6 nM. The “Subacute toxicity overall finding” value in data set [7] (dosage 80 times) is on record as “no obvious abnormality”. Besides, in data set [7] (setting [11]), the Anatomic findings result is “no anatomic abnormality”; the “Food intake and daily behavior” value was “no significant abnormality”. Further, in data set [7] (oral gavage 30, 100, 300 mpk once a day for 14 days, 2 weeks recovery (FIG. 1)), the Weight change entry is “no significant difference”. Further, the “GH level in the circulation of rats (in words)” value in data set [2] (15 minutes after administration, male rats) is reported as “significantly increased”. Moreover, the “GH concentration in rats” value in data set [2] (setting [9]) amounted to 12.23 ± 10.44 ng/mL. Also, in data set [2] (time point 15 min), the “GH concentration in rats” value came to 51.12 ± 33.98 ng/mL. The “GH concentration in rats” value in data set [2] (time point 30 min) was found to be 19.07 ± 7.17 ng/mL. In addition, the “GH concentration in rats” value in data set [2] (time point 60 min) is 11.76 ± 4.14 ng/mL. The “Efflux Ratio” value in data set [8] was 170. In data set [8] (2 hrs, pH 7.40), the “Mean Papp A to B” value is 0.0518 10^−6 cm/s and the “Mean Papp B to A” value is 8.80 10^−6 cm/s.
With `CCOP(=O)(OCC)OCOC(=O)NC(C)(C)C(=O)N[C@H](COCc1ccccc1)C(=O)N1CCC2(CC1)CN(S(C)(=O)=O)c1ccccc12` [Compound 10, ((Diethoxyphosphoryl)oxy)methyl (R)-(1-((3-(benzoxy)-1-(1-(methylsulfonyl)spiro[indol-3,4′-piperidin]-1′-yl)-1-oxopropan-2-yl)amino)-2-methyl-1-oxopropan-2-yl)carbamate], the 50% effective concentration (EC50) in data set [1] was found to be 152 nM.
`CC(=O)/C=C(/C)NC(C)(C)C(=O)N[C@H](COCc1ccccc1)C(=O)N1CCC2(CC1)CN(S(C)(=O)=O)c1ccccc12` [Compound 19, (R,Z)-N-(3-(benzoxy)-1-(1-(methylsulfonyl)spiro[indol-3,4′-piperidin]-1′-yl)-1-oxopropan-2-yl)-2-methyl-2-((4-oxopen-2-en-2-yl)amino)propionamide]: the efflux ratio at 2 h, 2 μM in data set [3] (Caco-2, pH 7.4, Efflux Ratio) stood at 189. The compound further gave a Papp A→B at 2 h, 2 μM in data set [3] (Caco-2, pH 7.4, Mean Papp A to B) of 0.198 ×10⁻⁶ cm/s. For the same compound, the Papp B→A at 2 h, 2 μM in data set [3] came out at 37.3 ×10⁻⁶ cm/s.

The EC50 is the midpoint of the concentration-response curve. Broadly, the Papp B→A is how fast a substance crosses the layer from the basolateral side. The term AUC(0-inf) denotes total exposure, with the tail of the curve extrapolated. Higher therefore signals more exposure. One may read the AUC(0-t) as the area under the concentration-time curve up to a stated or last time point. Higher therefore signals high exposure. One may read the Cmax as the maximum level reached in the sampled fluid or tissue. Broadly, the Tmax is the time at which the peak concentration occurs. In general, half-life refers to how long it takes for the measured level to halve. Read a low half-life as rapid decline. In general, efflux ratio refers to a quotient of directional permeabilities that is used to spot active efflux. The term Papp A→B denotes the apparent permeability from the apical to the basolateral side of a cell layer.
